Assay results published in patent publication US12509437B2, “Substituted thiophene carboxamides and derivatives thereof as microbicides” (Bayer Aktiengesellschaft, priority 2019, dated 2025).

Assay: LogP by HPLC on reversed phase columns (EEC directive 79/831 Annex V.A8)
Format: physicochemical
Conditions: method [a]
Experimental: [table] If more than one Log P value is available within the same method, all the values are given and separated by “+”. Calibration was done with straight-chain alkan2-ones (with 3 to 16 carbon atoms) with known Log P values (measurement of Log P values using retention times with linear interpolation between successive alkanones). Lambda-max-values were determined using UV-spectra from 200 nm to 400 nm and the peak values of the chromatographic signals.

SMILES | LogP
COC(=O)C1(NC(=O)c2sc(Br)c(Br)c2C)CCOC1 (centres unmarked) [I.004] | 2.84^[a]
CCSC(=O)C(CC(C)C)NC(=O)c1sc(Br)c(Br)c1C (centres unmarked) [I.007] | 5.03^[a]
CCSC(=O)C(NC(=O)c1sc(Br)c(Br)c1C)C(C)C (centres unmarked) [I.008] | 4.74^[a]
Cc1c(C(=O)NCC(=O)Sc2ccccc2)sc(Br)c1Br [I.011] | 4.10^[a]
COC(=O)CC1(NC(=O)c2sc(Br)c(Br)c2C)CC1 [I.012] | 3.07^[a]
CCOC(=O)C1(CNC(=O)c2sc(Br)c(Br)c2C)CC1 [I.013] | 3.79^[a]
CCOC(=O)C1(C2(NC(=O)c3sc(Br)c(Br)c3C)CC2)CC1 [I.017] | 4.37^[a]
CCOC(=O)C(CC(F)(F)F)NC(=O)c1sc(Br)c(Br)c1C (centres unmarked) [I.018] | 3.99^[a]
Cc1c(C(=O)NCC2(C(=O)O)CC2)sc(Br)c1Br [I.019] | 2.50^[a]
Cc1c(C(=O)NC2(C3(C(=O)OC(C)C)CC3)CC2)sc(Br)c1Br [I.020] | 4.87^[a]
Cc1c(C(=O)NCC(=O)NC2(C(=O)O)CC2)sc(Br)c1Br [I.025] | 1.95^[a]
Cc1c(C(=O)NCC#N)sc(Br)c1Br [I.026] | 2.59^[a]
Cc1c(C(=O)NC2(C#N)CC2)sc(Br)c1Br [I.027] | 2.80^[a]
Cc1c(C(=O)NC(C#N)C(C)C)sc(Br)c1Br (centres unmarked) [I.028] | 3.64^[a]
Cc1c(C(=O)NC(C#N)c2ccccc2)sc(Br)c1Br (centres unmarked) [I.029] | 3.85^[a]
Cc1c(C(=O)NC(C#N)Cc2ccccc2)sc(Br)c1Br (centres unmarked) [I.030] | 4.01^[a]
CCOC(=O)C(Cc1c[nH]c2ccccc12)NC(=O)c1sc(Br)c(Br)c1C (centres unmarked) [I.036] | 4.15^[a]
CCOC(=O)CCNC(=O)c1sc(Cl)c(Cl)c1C [I.038] | 3.06^[a]
CCSC(=O)C(CC(C)C)NC(=O)c1sc(Cl)c(Cl)c1C (centres unmarked) [I.041] | 5.00^[a]
CCSC(=O)C(NC(=O)c1sc(Cl)c(Cl)c1C)C(C)C (centres unmarked) [I.042] | 4.69^[a]

SMILES | LogP
COC(=O)[C@H](CCC(N)=O)NC(=O)c1sc(Cl)c(Cl)c1C [I.046] | 2.06^[a]
COC(=O)C1(NC(=S)c2sc(Cl)c(Cl)c2C)CC1 [I.050] | 3.68^[a]
Cc1c(C(=O)NC(C(N)=O)C(C)C)sc(Br)c1Br (centres unmarked) [I.051] | 2.58^[a]
COC(=O)[C@@H](CC(N)=O)NC(=O)c1sc(Br)c(Br)c1C [I.052] | 2.12^[a]
COC(=O)[C@H](CC(N)=O)NC(=O)c1sc(Br)c(Br)c1C [I.053] | 2.12^[a]
COC(=O)[C@@H](CC(N)=O)NC(=O)c1sc(Cl)c(Cl)c1C [I.054] | 2.05^[a]
COC(=O)[C@H](CC(N)=O)NC(=O)c1sc(Cl)c(Cl)c1C [I.055] | 2.02^[a]
CCOC(=O)CN(C)C(=O)c1sc(Cl)c(Cl)c1C [I.057] | 3.15^[a]
CCOC(=O)C(C(C)C)N(C)C(=O)c1sc(Br)c(Br)c1C (centres unmarked) [I.058] | 4.51^[a]
CCOC(=O)C(C(C)C)N(C)C(=O)c1sc(Cl)c(Cl)c1C (centres unmarked) [I.059] | 4.44^[a]
CON(C)C(=O)C(NC(=O)c1sc(Br)c(Br)c1C)C(C)C (centres unmarked) [I.061] | 3.71^[a]
Cc1c(C(=O)NCC(N)=O)sc(Cl)c1Cl [I.062] | 1.75^[a]
Cc1c(C(=O)NC2(C(N)=O)CC2)sc(Cl)c1Cl [I.063] | 1.96^[a]
Cc1c(C(=O)NC(CO)C(=O)O)sc(Cl)c1Cl (centres unmarked) [I.067] | 1.84^[a]
Cc1c(C(=O)NC(CC(N)=O)C(=O)O)sc(Cl)c1Cl (centres unmarked) [I.068] | 1.73^[a]
Cc1c(C(=O)NC(CCC(N)=O)C(=O)O)sc(Cl)c1Cl (centres unmarked) [I.069] | 1.70^[a]
Cc1c(C(=O)NC(CO)C(=O)O)sc(Br)c1Br (centres unmarked) [I.071] | 1.92^[a]
Cc1c(C(=O)NC(CCC(N)=O)C(=O)O)sc(Br)c1Br (centres unmarked) [I.072] | 1.77^[a]
Cc1c(C(=O)NC(Cc2c[nH]c3ccccc23)C(=O)O)sc(Br)c1Br (centres unmarked) [I.073] | 3.07^[a]
Cc1c(C(=O)NC(C(=O)NCC#N)C(C)C)sc(Br)c1Br (centres unmarked) [I.075] | 2.92^[a]

SMILES | LogP
COC(=O)CC1(NC(=O)c2sc(Cl)c(Cl)c2C)CC1 [I.082] | 2.98^[a]
COC(=O)C(NC(=O)c1sc(Cl)c(Cl)c1C)C(=O)OC [I.084] | 3.01^[a]
CCOC(=O)C(CC1CC1)NC(=O)c1sc(Cl)c(Cl)c1C (centres unmarked) [I.085] | 4.23^[a]
COC(=O)C(NC(=O)c1sc(Cl)c(Cl)c1C)(C1CC1)C1CC1 [I.086] | 3.94^[a]
CCOC(=O)C(NC(=O)c1sc(Cl)c(Cl)c1C)C(=O)OCC [I.087] | 3.81^[a]
CCOC(=O)C1(NC(=O)c2sc(Cl)c(Cl)c2C)CN(C(=O)OC(C)(C)C)C1 [I.088] | 4.15^[a]
CCOC(=O)C(NC(=O)c1sc(Br)c(Br)c1C)C1CC1 (centres unmarked) [I.089] | 3.84^[a]
CCOC(=O)C1(NC(=O)c2sc(Br)c(Br)c2C)CN(C(=O)OC(C)(C)C)C1 [I.090] | 4.23^[a]
COC(=O)C(NC(=O)c1sc(Br)c(Br)c1C)C(=O)OC [I.091] | 3.10^[a]
CCOC(=O)C(CC1CC1)NC(=O)c1sc(Br)c(Br)c1C (centres unmarked) [I.092] | 4.30^[a]
COC(=O)C(NC(=O)c1sc(Br)c(Br)c1C)(C1CC1)C1CC1 [I.093] | 4.01^[a]
CCOC(=O)C(NC(=O)c1sc(Br)c(Br)c1C)C(=O)OCC [I.094] | 3.87^[a]
Cc1c(C(=O)NC(C(=O)NC(C(=O)O)C2CC2)C2CC2)sc(Cl)c1Cl (centres unmarked) [I.096] | 2.67^[a]
CCOC(=O)CN(OC)C(=O)c1sc(Br)c(Br)c1C [I.097] | 3.93^[a]
CCOC(=O)CN(OC)C(=O)c1sc(Cl)c(Cl)c1C [I.098] | 3.87^[a]
CCOC(=O)CNC(=S)c1sc(Cl)c(Cl)c1C [I.099] | 3.92^[a]
CCOC(=O)C1(NC(=S)c2sc(Br)c(Br)c2C)CC1 [I.100] | 4.15^[a]
Cc1c(C(=S)NC2(C(=O)O)CC2)sc(Br)c1Br [I.102] | 2.91^[a]
COC(=O)[C@H](CCC(=O)O)NC(=O)c1sc(Cl)c(Cl)c1C [I.103] | 2.39^[a]
COC(=O)[C@H](CCC(=O)O)NC(=O)c1sc(Br)c(Br)c1C [I.104] | 2.46^[a]

Same assay, conditions: method [a]: LC-UV, acidic range, 0.1% formic acid in water and acetonitrile as eluent

SMILES | LogP
Cc1c(C(=O)NC2C(=O)SC2(C)C)sc(Br)c1Br (centres unmarked) [I.001] | 3.99^[a]
Cc1c(C(=O)NC2CCSC2=O)sc(Br)c1Br (centres unmarked) [I.002] | 3.04^[a]
Cc1c(C(=O)N[C@H]2CCSC2=O)sc(Br)c1Br [I.010] | 3.04^[a]
Cc1c(C(=O)NC2CCOC2=O)sc(Br)c1Br (centres unmarked) [I.021] | 2.41^[a]
Cc1c(C(=O)NC2CCCNC2=O)sc(Br)c1Br (centres unmarked) [I.022] | 2.10^[a]
Cc1c(C(=O)NC2CCSC2=O)sc(Cl)c1Cl (centres unmarked) [I.037] | 2.86^[a]
COC(=O)[C@H](Cc1ccccc1)NC(=O)[C@H](CC(=O)O)NC(=O)c1sc(Cl)c(Cl)c1C [I.048] | 3.09^[a]
Cc1c(C(=O)NC2CCNC2=O)sc(Br)c1Br (centres unmarked) [I.064] | 1.93^[a]
Cc1c(C(=O)NC2CNC(=O)C2)sc(Br)c1Br (centres unmarked) [I.065] | 1.89^[a]
Cc1c(C(=O)NC2CCNC(=O)C2)sc(Br)c1Br (centres unmarked) [I.066] | 1.93^[a]

Same assay, conditions: reversed phase HPLC columns; preparation examples; method not indicated; read-out: Log P

SMILES | chromatographic logP
Cc1c(C(=O)NC2(C(=O)O)CC2)sc(Cl)c1Cl [1-{[(4,5-dichloro-3-methyl-2-thienyl)carbonyl]amino}cyclopropanecarboxylic acid] | 2.17
